Laboratory results taken from publication PMC9889419 (Pharmacological Reports, 2022).
Where a name gives a salt, the structure may show the parent alone.

Legend:
Experiment in all cases: Radioligand binding
[1] = target: T1, 5-HT1A (Homo sapiens, UniProt P08908)
T1 sequence (P08908 1-422): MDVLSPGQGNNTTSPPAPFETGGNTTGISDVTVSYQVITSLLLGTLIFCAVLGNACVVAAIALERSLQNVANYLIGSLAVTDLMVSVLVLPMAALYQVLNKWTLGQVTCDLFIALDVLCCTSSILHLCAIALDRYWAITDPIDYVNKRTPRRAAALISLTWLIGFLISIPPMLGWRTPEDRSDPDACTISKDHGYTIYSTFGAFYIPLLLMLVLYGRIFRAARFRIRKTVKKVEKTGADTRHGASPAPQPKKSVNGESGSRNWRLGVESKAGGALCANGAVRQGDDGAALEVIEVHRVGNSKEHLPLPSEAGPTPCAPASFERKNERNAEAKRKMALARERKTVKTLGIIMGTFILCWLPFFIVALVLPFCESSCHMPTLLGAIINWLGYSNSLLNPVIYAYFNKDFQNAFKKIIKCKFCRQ
Description: (§1) Radioligand binding. Radioligand binding assays were performed at Eurofins CEREP (France). The results are expressed as a percent of control specific binding (measured specific binding*100/control specific binding) and as a percent inhibition of control specific binding (100-(measured specific binding*100)/control specific binding) obtained in the presence of the test compounds. The IC50 values (concentration causing a half-maximal inhibition of control specific binding) and Hill coefficients (nH) were determined by non-linear regression analysis of the competition curves generated with mean replicate values using Hill equation curve fitting (Y = D + [A-D]/[1 + (C/C50)^nH], where Y = specific binding, A = left asymptote of the curve, D = right asymptote of the curve, C = compound concentration, C50 = IC50, and nH = slope factor). This analysis was performed using software developed at Cerep (Hill software) and validated by comparison with data generated by the commercial software SigmaPlot® 4.0 for Windows® (© 1997 by SPSS Inc.). The inhibition constants (Ki) were calculated using the Cheng Prusoff equation (Ki = IC50/[1 + L/KD], where L = concentration of radioligand in the assay, and KD = affinity of the radioligand for the receptor). A scatchard plot is used to determine the Kd.

[2] = target: D2S (Homo sapiens, UniProt P14416)
D2S, sequence (P14416 1-414 isoform P14416-2): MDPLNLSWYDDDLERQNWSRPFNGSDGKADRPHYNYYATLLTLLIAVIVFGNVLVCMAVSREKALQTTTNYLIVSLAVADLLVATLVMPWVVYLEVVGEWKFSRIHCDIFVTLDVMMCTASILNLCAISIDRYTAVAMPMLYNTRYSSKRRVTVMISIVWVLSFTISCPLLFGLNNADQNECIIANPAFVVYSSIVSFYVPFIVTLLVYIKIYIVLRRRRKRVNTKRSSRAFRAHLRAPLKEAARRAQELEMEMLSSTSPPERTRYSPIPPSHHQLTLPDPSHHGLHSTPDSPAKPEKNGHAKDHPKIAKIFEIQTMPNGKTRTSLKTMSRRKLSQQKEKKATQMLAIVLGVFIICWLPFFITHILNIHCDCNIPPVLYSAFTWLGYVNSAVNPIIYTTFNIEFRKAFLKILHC
Description: as §1

[3] = target: 5-HT7 (Homo sapiens, UniProt P34969)
5-HT7, sequence (P34969 whole entry): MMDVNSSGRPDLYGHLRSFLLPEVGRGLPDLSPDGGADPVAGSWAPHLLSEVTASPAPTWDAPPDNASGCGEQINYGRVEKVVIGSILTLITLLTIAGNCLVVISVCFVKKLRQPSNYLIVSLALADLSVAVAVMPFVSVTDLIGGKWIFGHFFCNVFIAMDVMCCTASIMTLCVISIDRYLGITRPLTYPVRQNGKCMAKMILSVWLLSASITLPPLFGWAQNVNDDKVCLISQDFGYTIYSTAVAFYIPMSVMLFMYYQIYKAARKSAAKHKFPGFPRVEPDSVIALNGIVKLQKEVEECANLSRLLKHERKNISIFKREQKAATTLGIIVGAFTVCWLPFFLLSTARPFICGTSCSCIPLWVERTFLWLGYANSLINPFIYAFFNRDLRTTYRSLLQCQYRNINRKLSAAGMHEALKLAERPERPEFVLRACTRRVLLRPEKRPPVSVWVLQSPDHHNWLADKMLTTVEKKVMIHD
Description: as §1

[4] = target: T2, 5-HT2C (Homo sapiens, UniProt P28335)
T2 sequence (P28335 33-458): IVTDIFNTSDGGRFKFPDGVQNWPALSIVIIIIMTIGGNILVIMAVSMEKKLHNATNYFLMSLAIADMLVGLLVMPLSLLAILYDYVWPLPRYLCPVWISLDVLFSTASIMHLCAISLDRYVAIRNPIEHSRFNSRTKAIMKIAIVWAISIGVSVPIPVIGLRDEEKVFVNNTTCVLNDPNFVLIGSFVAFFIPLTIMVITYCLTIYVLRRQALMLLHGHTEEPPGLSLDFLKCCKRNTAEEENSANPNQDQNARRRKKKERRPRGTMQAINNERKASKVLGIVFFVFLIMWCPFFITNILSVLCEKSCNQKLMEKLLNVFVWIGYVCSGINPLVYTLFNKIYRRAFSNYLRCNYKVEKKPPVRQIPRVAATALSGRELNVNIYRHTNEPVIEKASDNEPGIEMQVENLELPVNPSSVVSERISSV
Description: as §1

[5] = target: 5-HT transporter (Homo sapiens, UniProt P31645)
5-HT transporter, sequence (P31645 whole entry): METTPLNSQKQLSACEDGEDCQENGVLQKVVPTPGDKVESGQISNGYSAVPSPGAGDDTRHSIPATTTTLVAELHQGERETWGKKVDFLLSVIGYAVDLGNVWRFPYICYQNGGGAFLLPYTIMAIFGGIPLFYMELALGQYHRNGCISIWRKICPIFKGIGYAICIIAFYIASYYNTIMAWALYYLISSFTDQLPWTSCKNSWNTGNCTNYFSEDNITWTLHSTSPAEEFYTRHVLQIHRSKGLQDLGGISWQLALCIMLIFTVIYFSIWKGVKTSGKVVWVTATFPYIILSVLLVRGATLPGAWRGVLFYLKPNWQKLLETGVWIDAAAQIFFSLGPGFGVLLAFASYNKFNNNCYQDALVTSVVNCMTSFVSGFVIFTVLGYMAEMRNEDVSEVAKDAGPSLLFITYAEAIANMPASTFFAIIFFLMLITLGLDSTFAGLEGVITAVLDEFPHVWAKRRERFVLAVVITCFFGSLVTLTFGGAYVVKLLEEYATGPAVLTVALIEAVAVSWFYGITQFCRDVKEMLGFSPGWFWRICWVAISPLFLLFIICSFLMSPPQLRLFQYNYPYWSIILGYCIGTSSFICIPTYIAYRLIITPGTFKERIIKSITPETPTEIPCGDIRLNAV
Description: as §1

[6] = target: T3, M5 (Homo sapiens, UniProt P08912)
T3 sequence (P08912 1-532): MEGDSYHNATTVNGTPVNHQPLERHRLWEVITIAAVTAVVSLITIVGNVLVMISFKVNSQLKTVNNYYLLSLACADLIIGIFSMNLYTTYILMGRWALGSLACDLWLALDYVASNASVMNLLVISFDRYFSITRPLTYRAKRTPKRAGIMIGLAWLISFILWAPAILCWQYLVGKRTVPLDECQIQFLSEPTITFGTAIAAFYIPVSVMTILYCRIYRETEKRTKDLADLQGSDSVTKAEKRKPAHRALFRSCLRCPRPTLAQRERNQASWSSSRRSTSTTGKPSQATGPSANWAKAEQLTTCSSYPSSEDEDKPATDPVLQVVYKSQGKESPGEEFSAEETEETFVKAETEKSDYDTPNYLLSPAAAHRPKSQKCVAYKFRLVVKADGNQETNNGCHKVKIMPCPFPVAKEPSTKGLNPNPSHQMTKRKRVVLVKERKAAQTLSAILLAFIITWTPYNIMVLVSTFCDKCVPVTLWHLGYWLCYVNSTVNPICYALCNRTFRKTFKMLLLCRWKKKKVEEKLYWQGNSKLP
Description: as §1

[7] = target: 5-HT2B (Homo sapiens, UniProt P41595)
5-HT2B, sequence (P41595 whole entry): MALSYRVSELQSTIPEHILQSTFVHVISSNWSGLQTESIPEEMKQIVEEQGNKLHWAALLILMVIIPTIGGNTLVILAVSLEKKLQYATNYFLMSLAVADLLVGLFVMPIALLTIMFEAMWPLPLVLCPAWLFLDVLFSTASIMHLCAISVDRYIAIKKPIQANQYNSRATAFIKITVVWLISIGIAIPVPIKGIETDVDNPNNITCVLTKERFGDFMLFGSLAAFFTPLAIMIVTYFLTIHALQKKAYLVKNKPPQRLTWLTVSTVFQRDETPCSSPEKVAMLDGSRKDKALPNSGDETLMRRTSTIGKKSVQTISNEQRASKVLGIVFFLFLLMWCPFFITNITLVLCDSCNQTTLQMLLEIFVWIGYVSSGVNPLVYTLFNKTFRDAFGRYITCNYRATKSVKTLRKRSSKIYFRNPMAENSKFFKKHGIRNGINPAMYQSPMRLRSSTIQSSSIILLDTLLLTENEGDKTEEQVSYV
Description: as §1

[8] = target: dopamine transporter (Homo sapiens, UniProt Q01959)
dopamine transporter, sequence (Q01959 whole entry): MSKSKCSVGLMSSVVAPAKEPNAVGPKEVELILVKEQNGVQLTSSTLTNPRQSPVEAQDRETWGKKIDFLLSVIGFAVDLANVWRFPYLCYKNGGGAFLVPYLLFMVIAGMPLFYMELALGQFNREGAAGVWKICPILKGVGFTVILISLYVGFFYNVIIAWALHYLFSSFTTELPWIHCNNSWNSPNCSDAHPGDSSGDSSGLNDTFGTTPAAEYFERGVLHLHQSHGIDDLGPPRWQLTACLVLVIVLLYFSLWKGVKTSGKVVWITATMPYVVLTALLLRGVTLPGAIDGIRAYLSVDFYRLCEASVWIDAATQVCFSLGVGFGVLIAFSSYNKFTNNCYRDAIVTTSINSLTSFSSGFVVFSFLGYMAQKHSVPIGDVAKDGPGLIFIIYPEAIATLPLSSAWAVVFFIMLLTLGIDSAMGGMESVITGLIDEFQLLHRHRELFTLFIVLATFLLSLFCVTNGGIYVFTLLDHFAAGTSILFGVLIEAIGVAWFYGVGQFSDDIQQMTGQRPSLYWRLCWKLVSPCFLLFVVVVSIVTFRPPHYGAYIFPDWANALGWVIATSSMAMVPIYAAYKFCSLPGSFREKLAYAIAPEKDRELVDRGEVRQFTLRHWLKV
Description: as §1

[9] = target: 5-HT2A (Homo sapiens, UniProt P28223)
5-HT2A, sequence (P28223 whole entry): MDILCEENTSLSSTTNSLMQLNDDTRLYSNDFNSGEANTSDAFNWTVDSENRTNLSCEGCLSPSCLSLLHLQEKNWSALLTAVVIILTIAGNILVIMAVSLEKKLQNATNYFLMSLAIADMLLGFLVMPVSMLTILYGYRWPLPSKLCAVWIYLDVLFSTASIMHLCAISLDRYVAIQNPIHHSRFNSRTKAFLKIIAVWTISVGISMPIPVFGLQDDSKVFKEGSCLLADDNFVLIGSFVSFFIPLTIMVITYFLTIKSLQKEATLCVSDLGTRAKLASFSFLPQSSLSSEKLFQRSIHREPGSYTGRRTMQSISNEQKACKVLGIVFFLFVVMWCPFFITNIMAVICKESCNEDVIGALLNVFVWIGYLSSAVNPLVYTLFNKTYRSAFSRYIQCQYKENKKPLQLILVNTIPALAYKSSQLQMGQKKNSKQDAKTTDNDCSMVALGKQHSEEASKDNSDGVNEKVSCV
Description: as §1

[10] = target: D3 (Homo sapiens, UniProt P35462)
D3, sequence (P35462 whole entry): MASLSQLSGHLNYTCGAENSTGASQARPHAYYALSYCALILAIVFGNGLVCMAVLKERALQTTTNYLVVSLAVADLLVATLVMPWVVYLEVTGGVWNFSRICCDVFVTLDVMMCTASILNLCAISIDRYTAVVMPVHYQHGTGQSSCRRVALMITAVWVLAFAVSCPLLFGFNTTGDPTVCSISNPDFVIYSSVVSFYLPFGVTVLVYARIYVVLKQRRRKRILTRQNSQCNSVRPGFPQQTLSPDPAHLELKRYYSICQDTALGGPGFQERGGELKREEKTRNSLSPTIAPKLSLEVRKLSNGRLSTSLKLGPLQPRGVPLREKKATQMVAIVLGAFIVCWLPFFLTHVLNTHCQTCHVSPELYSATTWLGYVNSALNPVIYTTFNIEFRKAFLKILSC
Description: as §1

[11] = 0.001 μM, read-out: % of control specific binding
[12] = 0.01 μM, read-out: % of control specific binding
[13] = 0.1 μM, read-out: % of control specific binding
[14] = 1 μM, read-out: % of control specific binding
[15] = 10 μM, read-out: % of control specific binding
[16] = 3 μM, read-out: % of control specific binding
[17] = 100 μM, read-out: % of control specific binding
[18] = 0.003 μM, read-out: % of control specific binding
[19] = 0.03 μM, read-out: % of control specific binding
[20] = 0.3 μM, read-out: % of control specific binding
[21] = 30 μM, read-out: % of control specific binding

CCC(CO)NCCOc1c(C)cccc1Cl (centres unmarked) [Compound 4, R,S-2-((2-(2-chloro-6-methylphenoxy)ethyl)amino)butan-1-ol]
% of control specific binding ([1]; 100 μM): 2.1%
% of control specific binding ([2]; 100 μM): 33.3%
% of control specific binding ([3]; 100 μM): 26.4%
% of control specific binding ([4]; 100 μM): 44.6%
% of control specific binding ([5]; 100 μM): 5.1%
% of control specific binding ([6]; 100 μM): 21.5%
% of control specific binding ([7]; 100 μM): 2.3%
% of control specific binding ([8]; 100 μM): 29.6%
% of control specific binding ([9]; 100 μM): 37.1%
% of control specific binding ([10]; 100 μM): 11.9%

CCC(CO)NCCOc1c(C)cccc1Cl (centres unmarked) [KM-408, R,S-2-((2-(2-chloro-6-methylphenoxy)ethyl)amino)butan-1-ol hydrochloride]
IC50 [1]: 1300 nM
Ki [1]: 800 nM
remaining activity at 0.001 µM [1, 11]: 100%
remaining activity at 0.01 µM [1, 12]: 95.9%
remaining activity at 0.1 µM [1, 13]: 88.6%
remaining activity at 1 µM [1, 14]: 55.6%
remaining activity at 10 µM [1, 15]: 12.5%
IC50 [2]: 100 µM
Ki [2]: 34 µM
remaining activity at 0.1 µM [2, 13]: 96.2%
remaining activity at 1 µM [2, 14]: 96.5%
remaining activity at 3 µM [2, 16]: 92.8%
remaining activity at 10 µM [2, 15]: 86%
remaining activity at 100 µM [2, 17]: 49.1%
IC50 [3]: 18 µM
Ki [3]: 6.5 µM
remaining activity at 0.01 µM [3, 12]: 107%
remaining activity at 0.1 µM [3, 13]: 106%
remaining activity at 1 µM [3, 14]: 105%
remaining activity at 10 µM [3, 15]: 66.1%
remaining activity at 100 µM [3, 17]: 20.2%
IC50 [4]: 77 µM
Ki [4]: 26 µM
remaining activity at 0.1 µM [4, 13]: 95.6%
remaining activity at 1 µM [4, 14]: 87.1%
remaining activity at 3 µM [4, 16]: 95.2%
remaining activity at 10 µM [4, 15]: 82.4%
remaining activity at 100 µM [4, 17]: 40.6%
IC50 [5]: 3.6 µM
Ki [5]: 1700 nM
remaining activity at 0.003 µM [5, 18]: 105%
remaining activity at 0.03 µM [5, 19]: 112%
remaining activity at 0.3 µM [5, 20]: 92.8%
remaining activity at 3 µM [5, 16]: 61%
remaining activity at 30 µM [5, 21]: 11.5%
IC50 [6]: 35 µM
Ki [6]: 18 µM
remaining activity at 0.01 µM [6, 12]: 104%
remaining activity at 0.1 µM [6, 13]: 92.6%
remaining activity at 1 µM [6, 14]: 96.8%
remaining activity at 10 µM [6, 15]: 76.6%
remaining activity at 100 µM [6, 17]: 26%
IC50 [7]: 2400 nM
Ki [7]: 1200 nM
remaining activity at 0.001 µM [7, 11]: 130%
remaining activity at 0.01 µM [7, 12]: 121%
remaining activity at 0.1 µM [7, 13]: 103%
remaining activity at 1 µM [7, 14]: 88%
remaining activity at 10 µM [7, 15]: 28.3%
IC50 [8]: 43 µM
Ki [8]: 23 µM
remaining activity at 0.1 µM [8, 13]: 93.9%
remaining activity at 1 µM [8, 14]: 87.8%
remaining activity at 3 µM [8, 16]: 94.4%
remaining activity at 10 µM [8, 15]: 72.6%
remaining activity at 100 µM [8, 17]: 29.6%
IC50 [9]: 55 µM
Ki [9]: 30 µM
remaining activity at 0.1 µM [9, 13]: 104%
remaining activity at 1 µM [9, 14]: 95%
remaining activity at 3 µM [9, 16]: 94.1%
remaining activity at 10 µM [9, 15]: 85.1%
remaining activity at 100 µM [9, 17]: 36.9%
IC50 [10]: 22 µM
Ki [10]: 4.9 µM
remaining activity at 0.003 µM [10, 18]: 104%
remaining activity at 0.03 µM [10, 19]: 103%
remaining activity at 0.3 µM [10, 20]: 102%
remaining activity at 3 µM [10, 16]: 95.3%
remaining activity at 30 µM [10, 21]: 42.5%
